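Method: 48-hour compound exposure of cells in 96-well plates, five concentrations, linear interpolation of endpoints. Abbreviation: GI50, concentration required for 50% inhibition of growth. TGI: total growth inhibition.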
What was measured:
Assay in all cases: DTP human tumour cell line panel, 48 h
[1] = test system: SNB-75 CNS
[2] = test system: K-562 leukemia
[3] = test system: KM12 colon
[4] = test system: UACC-62 melanoma
[5] = test system: A549 NSCLC
[6] = test system: MOLT-4 leukemia
[7] = test system: NCI-H226 lung
[8] = test system: SK-MEL-5 melanoma
[9] = test system: SF-539 CNS
[10] = test system: MCF7 breast

Structure (SMILES)	TGI [1] [µM]	TGI [2] [µM]	TGI [3] [µM]	TGI [4] [µM]	TGI [5] [µM]	TGI [6] [µM]	TGI [7] [µM]	TGI [8] [µM]	GI50 [1] [µM]	GI50 [2] [µM]	GI50 [3] [µM]	GI50 [4] [µM]	GI50 [5] [µM]	GI50 [9] [µM]	TGI [9] [µM]	GI50 [6] [µM]	GI50 [7] [µM]	GI50 [8] [µM]	GI50 [10] [µM]	TGI [10] [µM]
O=c1/c(=N\Nc2ccccc2)c2cccc3ccc4cccc1c4c32	> 100	> 100	> 100	> 100	> 100	> 100	> 100	> 100	–	–	–	–	–	–	–	–	–	–	–	–
O=C([O-])CC(=O)[O-].[NH-][C@@H]1CCCC[C@H]1[NH-].[Pt+4]	> 100	> 100	> 100	> 100	> 100	61.4	> 80.6	> 100	> 35.9	3.66	85	20.2	11.1	46.8	> 100	1.29	5.9	16.9	–	–
O=c1c2cc3ccccc3n2c(=O)c2cc3ccccc3n12	> 100	> 100	> 100	> 100	> 100	> 100	> 100	> 100	–	–	–	–	–	–	> 100	–	–	–	–	–
COC(=O)CC[C@]12C[C@]13CC[C@]1(C)C4C(C)C[C@]5(CC(C)C(=O)O5)OC4CC1(C)C3CCC2C(C)(C)O (stereo partly drawn)	> 100	> 100	> 100	–	> 100	–	–	> 100	–	–	–	–	–	–	> 100	–	–	–	–	–
C=C1C(OC(C)=O)CC(OC(C)=O)C2(C)C(OC(C)=O)C(OC(C)=O)C3=C(C)C(OC(=O)/C=C/c4ccccc4)CC(C(OC(C)=O)C12)C3(C)C (stereo not drawn)	43.4	> 100	> 100	> 100	> 100	> 100	> 100	> 100	–	–	–	–	–	–	> 100	–	–	–	–	–
O=C1NC2C(O)CCCCC2C12CCCCC2 (stereo not drawn)	> 100	> 100	> 100	> 100	> 100	> 100	–	> 100	–	–	–	–	–	–	> 100	–	–	–	–	–
COC(=O)N/N=C(\C)CC(=O)Nc1ccc(Cl)cc1	> 100	> 100	> 100	> 100	> 100	> 100	> 100	> 100	–	–	–	–	–	–	> 100	–	–	–	–	–
COc1cc(/C=N/N=C(\N)NO)c([N+](=O)[O-])cc1OC	78.9	> 100	> 100	59	> 100	> 100	54.4	50.9	–	–	–	–	–	–	> 100	–	–	–	–	–
C1=CCCC=CCC1.C[PH+](C)C.C[PH+](C)C.C[PH+](C)C.[Cl-].[Ir]	> 100	> 100	> 100	> 100	> 100	> 100	–	> 100	34.3	26.6	43.6	32.6	80.1	> 100	> 100	30.2	–	70	–	–
C[CH2][Sn]([CH2]C)([O]C(=O)c1ccc(F)cc1)[O]C(=O)c1ccc(F)cc1	33.5	64.7	> 100	36.6	> 100	> 85.1	29.4	> 100	17.9	16.7	> 100	17.7	> 100	16.4	30.1	26.7	15.5	39.6	–	–
COc1ccc2c(c1)CN1CCc3c(cc(OC)c(OC)c3OC)C1C2 (stereo not drawn)	> 100	> 100	–	> 100	> 100	> 100	> 100	> 100	–	–	–	–	–	–	> 100	–	–	–	–	–
COc1ccc2[nH]c(C(=O)OCc3ccc4c(Cl)cc(Cl)c(O)c4n3)cc2c1	1.78	3.05	3.49	2.61	3.4	3.72	3.07	3.02	0.251	0.355	1.76	1.33	1.67	1.25	2.5	1.03	1.42	1.65	–	–
CC[PH+](CC)CC.[Cl][Au]	6.99	1.19	26	2.63	44.4	2.69	9.32	2.44	2.3	0.319	11.6	1.16	15.5	2.35	7.36	0.682	4.49	1.14	–	–
CCn1c2ccccc2c2cc(C(=O)c3ccc(C)c4ccccc34)ccc21	–	> 100	14.9	3.52	> 100	> 100	> 100	1.41	–	0.338	0.362	0.296	0.421	0.255	0.802	0.0578	1.91	0.319	0.311	> 100
COc1cc2cnc3c4cc(OCc5ccccc5)ccc4ccc3c2cc1OC	18.7	> 100	> 100	> 100	> 100	30.9	72.6	76	–	–	–	–	–	–	> 100	–	–	–	–	–
CO[C@@]1(c2ccccc2)O[C@H]2OCCC2[C@H]1c1ccc(Cl)cc1 (stereo partly drawn)	> 100	> 100	> 100	> 100	> 100	92.7	> 100	33.1	–	–	–	–	–	–	> 100	–	–	–	–	–
CC1=CCCC2C(C=O)(C1)CC(C)C2(CO)CC/C(=C/CO)CO (stereo not drawn)	> 100	> 100	> 100	> 100	> 100	> 100	> 100	> 100	–	–	–	–	–	–	–	–	–	–	–	–
